# Reference: patent US20230364230A1, “COMBINATION THERAPY FOR CANCER” (ENGMAB SÀRL, priority 2020, published 2023)
# Columns and labels:
# [1] = test system: H929 target cells; assay: Protein 1 induced ADCC after pretreatment of PBMCs with single concentration, Protein 1 dose range; type: cell-based, human; details: PBMCs pretreated 24 or 48 hours with 0.1 nM CC-92480 or 1 nM CC-220; Protein 1 0 nM to 10 nM
# Method: PBMCs from a healthy donor were preincubated for 24 hours or 48 hours in the presence of CC-92480 at 0.1 nM or CC-220 (iberdomide) at 1 nM or a DMSO control. After pretreatment, PBMCs were incubated for an additional 18 hours or overnight in the presence of H929 target cells with concentrations of Protein 1 ranging from 0 nM to 10 nM. Samples were analyzed via flow cytometry for H929 depletion. Specific lysis was calculated as following: (1−((test sample H929 count)/(H929 count in DMSO control without Protein 1)))*100. PBMCs were pretreated 0.1 nM of CC-92480 or 1 nM of CC-220 or DMSO control for either 24 hours (FIG. 13A) or 48 hours (FIG. 13B). After pretreatment, PBMCs were cultured with H929 target cells and 0 nM to 10 nM of Protein 1 overnight. H929 lysis was determined via flow cytometry. Pretreatment of PBMCs with single concentration of CC-92480 or CC-220 enhanced Protein 1 induced ADCC.
# [2] = test system: H929 target cells; assay: Protein 1 induced ADCC after pretreatment of PBMCs with different concentrations (H929 lysis, flow cytometry); type: cell-based, human; details: for % lysis with Protein 1: 0.1 nM Protein 1, % change from DMSO control + Protein 1; for % lysis without Protein 1: % change from DMSO control
# Method: PBMCs from two healthy donors were pre-incubated for 24 hours or 48 hours in the presence of CC-92480 or a DMSO control. CC-92480 was added at 0.001 nM, 0.01 nM, 0.1 nM, 1 nM and 10 nM concentrations. After pretreatment, PBMCs were incubated for an additional 18 hours or overnight in the presence of H929 target cells with or without the addition of 0.1 nM of Protein 1. Samples were analyzed via flow cytometry for H929 depletion. Specific lysis was calculated as following: (1−((test sample H929 count)/(H929 count in DMSO control without Protein 1)))*100. PBMCs from two healthy donors were pre-incubated for 24 hours or 48 hours in the presence of CC-220 or a DMSO control. CC-220 was added at 0.01 nM, 0.1 nM, 1 nM, 10 nM and 100 nM concentrations. After pretreatment, PBMCs were incubated for an additional 18 hours or overnight in the presence of H929 target cells with or without the addition of 0.1 nM of Protein 1. Samples were analyzed via flow cytometry for H929 depletion. Specific lysis was calculated as following: (1−((test sample H929 count)/(H929 count in DMSO control without Protein 1)))*100. […] Data is normalized to % change of sample from the control treated DMSO sample+/−Protein 1. For % lysis without Protein 1, the control sample is PBMC pretreated with DMSO+H929. For % lysis with Protein 1, the control sample is PBMC pretreated with DMSO+H929+0.1 nM of Protein 1.
# [3] = test system: H929 target cells; assay: Protein 1 induced ADCC after pretreatment of both PBMC and H929 target cells; type: cell-based, human
# Method: PBMCs from a healthy donor were pre-incubated for 48 hours in the presence of CC-92480 or CC-220 (iberdomide) or a DMSO control. Additionally, H929 cells were also pre-incubated separately from the PBMCs for 48 hours with CELMoD. For CC-92480, PBMC and H929 were incubated in 0.1 nM, 1 nM or 10 nM concentrations. For CC-220, cells were incubated in 1 nM or 10 nM concentrations. Cells were also pre-incubated in with a DMSO control. After pretreatment, PBMC and H929 were combined based on their matched treatments and incubated for an additional 18 hours or overnight in the presence of a dose range of Protein 1, 0 nM to 10 nM. Samples were analyzed via flow cytometry for H929 depletion. Specific lysis was calculated as following: (1−((test sample H929 count)/(H929 count in DMSO control without PBMC and without Protein 1)))*100. PBMC and H929 cells were pretreated separately with varying doses of CC-92480 (FIG. 14A) or CC-220 (FIG. 14B) or a DMSO control for 48 hours. After pretreatment, PBMCs and H929 target cells were combined and co-cultured overnight with a dose range of Protein 1 at 0 nM to 10 nM. H929 cell depletion was analyzed by flow cytometry. […] Pretreatment of both PBMC and H929 target cells with CC-92480 or CC-220 (iberdomide) enhanced Protein 1 induced ADCC.
# [4] = target: T1, Ikaros (Homo sapiens, UniProt Q13422+Q96SW2); assay: Degradation of Ikaros in primary NK cells (intracellular staining, flow cytometry); type: cell-based; set-up: endogenous in cells; host or cells: primary human NK cells gated from healthy-donor PBMCs; details: PBMCs from healthy donors (n=7), dose titrations, 5 hours
# Method: (§1) Intracellular staining of Aiolos and Ikaros in primary human NK cells was performed by flow cytometry gating on live, CD3-CD4-CD8-CD56+CD16+NK cell populations.
# [5] = test system: TMD8 cells; assay: HLA-DR and CD86 expression in TMD8 cells by flow cytometry; type: cell-based; details: 48 hours
# Method: DLBCL cell line TMD8 was treated with avadomide for 48 hours. […] The result corroborated the ChIP-seq analysis (FIG. 10B).
# [6] = test system: NK cells; assay: NK cell proliferation in DLBCL patient PBMCs stimulated with anti-CD3; type: cell-based, human; details: PBMCs treated 1 hour prior to anti-CD3 stimulation for 3 days
# Method: Percentage of NK cells was analyzed via flow cytometry gated on live CD3-CD19-CD14-CD56+CD16+NK cells. Cytokinic NK cells were […]16^low and cytotoxic NK cells were CD56^lowCD16^high populations.
# [7] = target: T1, Ikaros; assay: Ikaros expression by western blot in DLBCL cells; type: cell-based; set-up: endogenous in cells; host or cells: Karpas 422, WSU-DLCL2, U2932 and TMD8 DLBCL cells; details: Karpas 422, WSU-DLCL2, U2932 and TMD8 cells, 0.1, 1, or 10 μM
# Method: (§2) Karpas 422, WSU-DLCL2, U2932 and TMD8 cells were treated with avadomide at a concentration of 0.1, 1, or 10 μM. The expression of Aiolos, Ikaros, […] and IRF4 were measured by western blot.
# [8] = target: T2, Aiolos (Homo sapiens, UniProt Q96SW2+Q9UKT9); assay: Aiolos expression by western blot in DLBCL cells; type: cell-based; set-up: endogenous in cells; host or cells: Karpas 422, WSU-DLCL2, U2932 and TMD8 DLBCL cells; details: Karpas 422, WSU-DLCL2, U2932 and TMD8 cells, 0.1, 1, or 10 μM
# Method: as §2
# [9] = test system: interferon stimulated genes; assay: Induction of interferon stimulated genes in DLBCL cells; type: cell-based; details: correlated with degradation of Aiolos and Ikaros
# Method: as §2
# The induction of interferon stimulated genes was correlated with the degradation of Aiolos and Ikaros. […] Such direct regulation was shown using Chromatin Immunoprecipitation sequencing (ChIP-seq) analysis and generic methods, see, e.g., Hagner et al, Blood, 126(6):779-789 (2015), which is incorporated by reference in its entirety.
# [10] = test system: NKG2D+ NK cells; assay: Surface expression of NKG2D on NK cells in DLBCL patient PBMC; type: cell-based, human; details: PBMCs treated 1 hour prior to anti-CD3 stimulation for 3 days
# Method: Surface expression of NKG2D was measured by flow cytometry gated on live CD3-CD19-CD14-CD56+CD16+NK cells.
# [11] = target: T2, Aiolos; assay: Degradation of Aiolos in primary NK cells (intracellular staining, flow cytometry); type: cell-based; set-up: endogenous in cells; host or cells: primary human NK cells gated from healthy-donor PBMCs; details: PBMCs from healthy donors (n=7), dose titrations, 5 hours
# Method: as §1
# [12] = pretreatment 0.1 nM, 24 hour, donor 1
# [13] = pretreatment 0.1 nM, 24 hour, donor 2
# [14] = pretreatment 0.1 nM, 48 hour, donor 1
# [15] = pretreatment 0.1 nM, 48 hour, donor 2
# [16] = pretreatment 10 nM, 24 hour, donor 1
# [17] = pretreatment 10 nM, 24 hour, donor 2
# [18] = pretreatment 10 nM, 48 hour, donor 1
# [19] = pretreatment 10 nM, 48 hour, donor 2
# T1 sequence (Q13422 whole entry): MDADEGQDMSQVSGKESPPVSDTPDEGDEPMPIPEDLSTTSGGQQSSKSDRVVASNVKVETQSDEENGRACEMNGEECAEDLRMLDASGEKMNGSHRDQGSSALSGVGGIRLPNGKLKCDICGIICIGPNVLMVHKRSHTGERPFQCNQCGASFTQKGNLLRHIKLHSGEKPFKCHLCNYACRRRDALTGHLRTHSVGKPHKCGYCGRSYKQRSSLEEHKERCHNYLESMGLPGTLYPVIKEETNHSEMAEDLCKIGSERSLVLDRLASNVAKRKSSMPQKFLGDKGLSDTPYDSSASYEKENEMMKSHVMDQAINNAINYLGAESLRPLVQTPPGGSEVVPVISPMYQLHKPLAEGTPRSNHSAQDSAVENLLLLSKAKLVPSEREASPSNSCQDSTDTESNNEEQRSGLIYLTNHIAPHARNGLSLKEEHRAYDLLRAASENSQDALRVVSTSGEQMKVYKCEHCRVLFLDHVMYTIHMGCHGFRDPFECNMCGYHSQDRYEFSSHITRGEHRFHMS
# T1 sequence (Q96SW2 whole entry): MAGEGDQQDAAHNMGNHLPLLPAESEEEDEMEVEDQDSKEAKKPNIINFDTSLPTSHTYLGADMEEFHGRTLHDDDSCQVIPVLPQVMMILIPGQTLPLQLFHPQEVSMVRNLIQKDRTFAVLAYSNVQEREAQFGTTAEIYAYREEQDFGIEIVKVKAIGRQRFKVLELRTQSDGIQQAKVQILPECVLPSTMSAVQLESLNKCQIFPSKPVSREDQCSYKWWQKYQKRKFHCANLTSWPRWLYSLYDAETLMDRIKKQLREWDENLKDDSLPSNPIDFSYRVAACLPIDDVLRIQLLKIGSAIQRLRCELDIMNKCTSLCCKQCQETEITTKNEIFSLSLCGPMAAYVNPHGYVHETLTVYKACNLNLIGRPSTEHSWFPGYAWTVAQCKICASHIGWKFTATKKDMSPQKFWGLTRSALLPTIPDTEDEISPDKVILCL
# T1 sequence (Q16531 whole entry partner): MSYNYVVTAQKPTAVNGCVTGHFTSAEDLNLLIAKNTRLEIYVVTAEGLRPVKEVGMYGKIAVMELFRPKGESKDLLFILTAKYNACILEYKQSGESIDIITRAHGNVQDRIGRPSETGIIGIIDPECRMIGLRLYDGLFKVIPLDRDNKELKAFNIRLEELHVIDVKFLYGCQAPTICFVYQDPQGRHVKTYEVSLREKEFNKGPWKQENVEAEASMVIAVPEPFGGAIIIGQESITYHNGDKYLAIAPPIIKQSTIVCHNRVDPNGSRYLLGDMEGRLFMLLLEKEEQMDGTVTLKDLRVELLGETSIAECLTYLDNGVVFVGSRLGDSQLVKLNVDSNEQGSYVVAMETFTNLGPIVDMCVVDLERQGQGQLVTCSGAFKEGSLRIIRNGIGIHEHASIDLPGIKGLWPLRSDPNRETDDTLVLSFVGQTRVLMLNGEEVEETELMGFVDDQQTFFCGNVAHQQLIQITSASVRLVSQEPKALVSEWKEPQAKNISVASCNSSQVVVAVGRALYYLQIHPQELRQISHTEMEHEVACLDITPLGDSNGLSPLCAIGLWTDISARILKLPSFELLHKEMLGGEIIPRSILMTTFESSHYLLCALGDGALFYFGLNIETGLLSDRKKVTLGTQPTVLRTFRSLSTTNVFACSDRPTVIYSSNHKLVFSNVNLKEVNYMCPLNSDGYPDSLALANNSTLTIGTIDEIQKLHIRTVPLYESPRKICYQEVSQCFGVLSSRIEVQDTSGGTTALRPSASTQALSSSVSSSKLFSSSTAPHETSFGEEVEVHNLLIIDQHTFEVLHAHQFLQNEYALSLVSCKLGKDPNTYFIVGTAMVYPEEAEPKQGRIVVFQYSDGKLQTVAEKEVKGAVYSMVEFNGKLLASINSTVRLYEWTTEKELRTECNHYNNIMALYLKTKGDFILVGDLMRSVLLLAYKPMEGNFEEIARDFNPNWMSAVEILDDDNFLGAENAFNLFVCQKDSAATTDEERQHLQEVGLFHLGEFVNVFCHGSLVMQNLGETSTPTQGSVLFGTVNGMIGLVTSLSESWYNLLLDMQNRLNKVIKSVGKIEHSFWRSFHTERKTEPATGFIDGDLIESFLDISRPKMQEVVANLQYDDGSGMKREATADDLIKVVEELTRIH
# T2 sequence (Q9UKT9 whole entry): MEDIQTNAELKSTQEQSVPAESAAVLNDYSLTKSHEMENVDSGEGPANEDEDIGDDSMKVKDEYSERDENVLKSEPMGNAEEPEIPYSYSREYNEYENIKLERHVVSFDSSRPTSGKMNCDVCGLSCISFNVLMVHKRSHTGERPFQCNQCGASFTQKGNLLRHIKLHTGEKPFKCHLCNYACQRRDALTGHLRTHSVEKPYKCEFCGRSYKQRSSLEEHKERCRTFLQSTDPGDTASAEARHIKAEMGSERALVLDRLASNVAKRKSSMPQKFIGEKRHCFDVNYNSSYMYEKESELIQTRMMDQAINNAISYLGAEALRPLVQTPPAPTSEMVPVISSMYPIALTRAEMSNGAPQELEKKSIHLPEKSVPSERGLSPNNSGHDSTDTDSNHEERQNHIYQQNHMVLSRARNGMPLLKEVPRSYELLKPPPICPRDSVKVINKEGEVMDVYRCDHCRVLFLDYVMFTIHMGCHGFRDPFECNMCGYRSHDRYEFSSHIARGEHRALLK
# T2 sequence (Q96SW2 whole entry): as the sequence (Q96SW2 whole entry) above
# T2 sequence (Q16531 whole entry partner): as the sequence (Q16531 whole entry partner) above
smiles,measurement,setting,value
"N#Cc1ccc(N2CCN(Cc3ccc(COc4cccc5c4CN([C@H]4CCC(=O)NC4=O)C5=O)cc3)CC2)c(F)c1 [CC-92480, (S)-4-(4-(4-(((2-(2,6-dioxopiperidin-3-yl)-1-oxoisoindolin-4-yl)oxy)methyl)benzyl)piperazin-1-yl)-3-fluorobenzonitrile]",Protein 1 induced ADCC (H929 lysis),[1],enhanced
same,Protein 1 induced ADCC (H929 lysis),"[2]; PBMCs pretreated 24 or 48 hours at different concentrations, 0.1 nM Protein 1 overnight",enhanced
same,% lysis difference with Protein 1,[2]; [12],48.85%
same,% lysis with Protein 1,[2]; [12],58.27%
same,% lysis without Protein 1,[2]; [12],9.42%
same,% lysis difference with Protein 1,[2]; [13],76.64%
same,% lysis with Protein 1,[2]; [13],67.82%
same,% lysis without Protein 1,[2]; [13],−8.82%
same,% lysis difference with Protein 1,[2]; [14],79.40%
same,% lysis with Protein 1,[2]; [14],64.54%
same,% lysis without Protein 1,[2]; [14],−14.86%
same,% lysis difference with Protein 1,[2]; [15],36.79%
same,% lysis with Protein 1,[2]; [15],82.02%
same,% lysis without Protein 1,[2]; [15],45.23%
same,% lysis difference with Protein 1,[2]; [16],27.75%
same,% lysis with Protein 1,[2]; [16],28.79%
same,% lysis without Protein 1,[2]; [16],1.04%
same,% lysis difference with Protein 1,[2]; [17],−33.32%
same,% lysis with Protein 1,[2]; [17],−43.51%
same,% lysis without Protein 1,[2]; [17],−10.19%
same,% lysis difference with Protein 1,[2]; [18],72.35%
same,% lysis with Protein 1,[2]; [18],42.46%
same,% lysis without Protein 1,[2]; [18],−29.89%
same,% lysis difference with Protein 1,[2]; [19],52.72%
same,% lysis with Protein 1,[2]; [19],59.57%
same,% lysis without Protein 1,[2]; [19],6.85%
same,susceptibility of H929 target cells to lysis,"[3]; H929 target cells pretreated 48 hours, most notably at Protein 1 0.01-0.1 nM",more susceptible to lysis
same,Protein 1 induced ADCC (H929 cell depletion),"[3]; PBMC and H929 pretreated separately 48 hours, Protein 1 0 nM to 10 nM",enhanced
"Cc1nc2cccc(N)c2c(=O)n1C1CCC(=O)NC1=O (centres unmarked) [avadomide, 3-(5-amino-2-methyl-4-oxoquinazolin-3(4H)-yl)piperidine-2,6-dione]",degradation of Ikaros in primary NK cells,[4],mediates degradation
same,expression of CD86,[5],enhanced expression
same,expression of HLA-DR,[5],enhanced expression
same,NK cell proliferation in DLBCL patient samples,[6],dose dependently enhanced
same,degradation of Ikaros in DLBCL cells,[7],mediated degradation
same,degradation of Aiolos in DLBCL cells,[8],mediated degradation
same,induction of interferon stimulated genes in DLBCL cells,[9],induction
same,NKG2D+ NK cells in DLBCL patient PBMC,[10],significantly expanded
same,degradation of Aiolos in primary NK cells,[11],mediates degradation
"Nc1cccc2c1CN(C1CCC(=O)NC1=O)C2=O (centres unmarked) [lenalidomide, 3-(7-amino-3-oxo-1H-isoindol-2-yl)piperidine-2,6-dione]",NKG2D+ NK cells in DLBCL patient PBMC,[10],significantly expanded
